Test results reported in the NIST ThermoML archive (doi:10.1016/j.tca.2013.09.017).
± gives the expanded uncertainty stated by the source.

What was measured:
[1] = mn = molality of the nth substance listed, in mol/kg; conditions: 298.15 K, 101 kPa, Liquid; for speed of sound: Sing-around technique in a fixed-path interferometer; for mass density: Vibrating tube method
[2] = 298.15 K, 101.33 kPa, Liquid; for speed of sound: Sing-around technique in a fixed-path interferometer; for mass density: Vibrating tube method

CN1CCCC1=O [N-methylpyrrolidone] + O
[1]
Conditions | mass density [kg/m3] | speed of sound [m/s]
m1 = 0.0621 | 997.34 ± 0.07 | 1500.7 ± 1.1
m1 = 0.1225 | 997.63 ± 0.07 | 1504.4 ± 1.1
m1 = 0.1806 | 997.92 ± 0.07 | 1507.8 ± 1.1
m1 = 0.2399 | 998.21 ± 0.07 | 1511.4 ± 1.1
m1 = 0.3036 | 998.54 ± 0.07 | 1515.1 ± 1.1

CCCO [propan-1-ol]
[2]
Conditions | mass density [kg/m3] | speed of sound [m/s]
– | 799.58 ± 0.15 | 1206.7 ± 0.95

CCC(=O)N(C)C [N,N-dimethylpropionamide] + CO
[1]
Conditions | mass density [kg/m3] | speed of sound [m/s]
m1 = 0.0618 | 787.53 ± 0.16 | 1105 ± 0.9
m1 = 0.1442 | 788.62 ± 0.16 | 1107 ± 0.9
m1 = 0.2317 | 789.76 ± 0.15 | 1109.6 ± 0.9
m1 = 0.3264 | 790.9 ± 0.15 | 1112 ± 0.9
m1 = 0.4233 | 792.14 ± 0.15 | 1114.7 ± 0.9

CN1CCCC1=O [N-methylpyrrolidone] + CCO
[1]
Conditions | mass density [kg/m3] | speed of sound [m/s]
m1 = 0.077 | 786.74 ± 0.16 | 1146.8 ± 0.9
m1 = 0.1554 | 788.32 ± 0.16 | 1149.3 ± 0.9
m1 = 0.2349 | 789.86 ± 0.15 | 1151.9 ± 0.9
m1 = 0.3089 | 791.28 ± 0.15 | 1154 ± 0.9
m1 = 0.388 | 792.78 ± 0.15 | 1156.5 ± 0.9

CCC(=O)N(C)C [N,N-dimethylpropionamide] + CCCO
[1]
Conditions | mass density [kg/m3] | speed of sound [m/s]
m1 = 0.0515 | 800.16 ± 0.15 | 1207.9 ± 1
m1 = 0.1316 | 801.03 ± 0.15 | 1209.6 ± 1
m1 = 0.2061 | 801.84 ± 0.15 | 1211.2 ± 1
m1 = 0.2845 | 802.68 ± 0.15 | 1212.9 ± 1
m1 = 0.3632 | 803.51 ± 0.15 | 1214.5 ± 1

CN1CCCC1=O [N-methylpyrrolidone]
[2]
Conditions | mass density [kg/m3] | speed of sound [m/s]
– | 1028.01 ± 0.08 | 1545.2 ± 1.1

CCC(=O)N(C)C [N,N-dimethylpropionamide] + CCCCO
[1]
Conditions | mass density [kg/m3] | speed of sound [m/s]
m1 = 0.0494 | 806.25 ± 0.15 | 1241.7 ± 1
m1 = 0.1311 | 807.08 ± 0.15 | 1243.2 ± 1
m1 = 0.21 | 807.88 ± 0.15 | 1244.6 ± 1
m1 = 0.2899 | 808.68 ± 0.15 | 1246.1 ± 1
m1 = 0.3702 | 809.48 ± 0.15 | 1247.5 ± 1

CCC(=O)N(C)C [N,N-dimethylpropionamide] + O
[1]
Conditions | mass density [kg/m3] | speed of sound [m/s]
m1 = 0.0588 | 996.85 ± 0.07 | 1501.1 ± 1.1
m1 = 0.1486 | 996.53 ± 0.07 | 1508.1 ± 1.1
m1 = 0.2471 | 996.2 ± 0.08 | 1515.7 ± 1.1
m1 = 0.3518 | 995.95 ± 0.08 | 1522 ± 1.1
m1 = 0.4457 | 995.72 ± 0.08 | 1528.2 ± 1.1

CCO [ethanol]
[2]
Conditions | mass density [kg/m3] | speed of sound [m/s]
– | 785.22 ± 0.16 | 1145.2 ± 0.93

CCCCCCC [heptane]
[2]
Conditions | mass density [kg/m3] | speed of sound [m/s]
– | 679.51 ± 0.21 | 1131.4 ± 0.92

CCC(=O)N(C)C [N,N-dimethylpropionamide] + CCCCCCC
[1]
Conditions | mass density [kg/m3] | speed of sound [m/s]
m1 = 0.0487 | 680.32 ± 0.21 | 1132.3 ± 0.9
m1 = 0.1515 | 681.98 ± 0.21 | 1133.4 ± 0.9
m1 = 0.2686 | 683.9 ± 0.21 | 1135.1 ± 0.9
m1 = 0.3627 | 685.47 ± 0.2 | 1136.2 ± 0.9
m1 = 0.4628 | 687.09 ± 0.2 | 1137.5 ± 0.9

CO [methanol]
[2]
Conditions | mass density [kg/m3] | speed of sound [m/s]
– | 786.66 ± 0.16 | 1103.4 ± 0.91

CCC(=O)N(C)C [N,N-dimethylpropionamide]
[2]
Conditions | mass density [kg/m3] | speed of sound [m/s]
– | 921.16 ± 0.19 | 1425.4 ± 1.2

CN1CCCC1=O [N-methylpyrrolidone] + CCCCO
[1]
Conditions | mass density [kg/m3] | speed of sound [m/s]
m1 = 0.0846 | 807.27 ± 0.15 | 1243 ± 1
m1 = 0.1506 | 808.43 ± 0.15 | 1244.6 ± 1
m1 = 0.23 | 809.82 ± 0.15 | 1245.8 ± 1
m1 = 0.2953 | 810.94 ± 0.14 | 1247.7 ± 1
m1 = 0.3712 | 812.24 ± 0.14 | 1249.6 ± 1

CN1CCCC1=O [N-methylpyrrolidone] + CO
[1]
Conditions | mass density [kg/m3] | speed of sound [m/s]
m1 = 0.0786 | 788.33 ± 0.16 | 1106.3 ± 0.9
m1 = 0.1588 | 789.97 ± 0.15 | 1109 ± 0.9
m1 = 0.2275 | 791.35 ± 0.15 | 1111.2 ± 0.9
m1 = 0.3082 | 792.96 ± 0.15 | 1114 ± 0.9
m1 = 0.3854 | 794.5 ± 0.15 | 1116.6 ± 0.9

C1CCCCC1 [cyclohexane]
[2]
Conditions | mass density [kg/m3] | speed of sound [m/s]
– | 773.82 ± 0.16 | 1255 ± 0.97

CCCCO [butan-1-ol]
[2]
Conditions | mass density [kg/m3] | speed of sound [m/s]
– | 805.72 ± 0.15 | 1240.5 ± 0.97

CCC(=O)N(C)C [N,N-dimethylpropionamide] + C1CCCCC1
[1]
Conditions | mass density [kg/m3] | speed of sound [m/s]
m1 = 0.05 | 773.91 ± 0.16 | 1254.7 ± 1
m1 = 0.1518 | 774.79 ± 0.16 | 1254.7 ± 1
m1 = 0.2497 | 775.68 ± 0.16 | 1254.8 ± 1
m1 = 0.355 | 776.64 ± 0.16 | 1254.9 ± 1
m1 = 0.4496 | 777.52 ± 0.16 | 1255 ± 1

CN1CCCC1=O [N-methylpyrrolidone] + CCCO
[1]
Conditions | mass density [kg/m3] | speed of sound [m/s]
m1 = 0.0757 | 801.03 ± 0.15 | 1209.1 ± 1
m1 = 0.1611 | 802.58 ± 0.15 | 1211.6 ± 1
m1 = 0.2275 | 803.78 ± 0.15 | 1213.4 ± 1
m1 = 0.3064 | 805.2 ± 0.15 | 1215.6 ± 1
m1 = 0.381 | 806.51 ± 0.15 | 1217.6 ± 1

CCC(=O)N(C)C [N,N-dimethylpropionamide] + CCO
[1]
Conditions | mass density [kg/m3] | speed of sound [m/s]
m1 = 0.0587 | 785.99 ± 0.16 | 1146.6 ± 0.9
m1 = 0.1486 | 787.09 ± 0.16 | 1148.1 ± 0.9
m1 = 0.2471 | 788.4 ± 0.16 | 1150.7 ± 0.9
m1 = 0.3517 | 789.6 ± 0.15 | 1153.2 ± 0.9
m1 = 0.4456 | 790.79 ± 0.15 | 1155.3 ± 0.9

CN1CCCC1=O [N-methylpyrrolidone] + CCCCCCC
[1]
Conditions | mass density [kg/m3] | speed of sound [m/s]
m1 = 0.0859 | 681.45 ± 0.21 | 1133.1 ± 0.9
m1 = 0.1879 | 683.75 ± 0.21 | 1135 ± 0.9
m1 = 0.2695 | 685.56 ± 0.2 | 1136.4 ± 0.9
m1 = 0.3576 | 687.51 ± 0.2 | 1137.7 ± 0.9
m1 = 0.4488 | 689.49 ± 0.2 | 1139.2 ± 0.9

CN1CCCC1=O [N-methylpyrrolidone] + C1CCCCC1
[1]
Conditions | mass density [kg/m3] | speed of sound [m/s]
m1 = 0.0792 | 774.81 ± 0.16 | 1256 ± 1
m1 = 0.1648 | 776.26 ± 0.16 | 1256.8 ± 1
m1 = 0.2385 | 777.5 ± 0.16 | 1257.6 ± 1
m1 = 0.3142 | 778.77 ± 0.16 | 1258.3 ± 1
m1 = 0.3925 | 780.08 ± 0.16 | 1258.7 ± 1
